# Assays:
# MMP-13 (active form) = assay: Western blotting of culture supernatant of UE7T-13 cells, MMP-13; format: cell-based; conditions: 15 μM IC-2, UE7T-13 cells, culture supernatant Day 9, vs 0.1% DMSO
# Procedure: (§1) The number of the culture dishes prepared was 6.
# (§2) The culture medium was exchanged in the same manner as Day 0. […] That is, the cells of chemical-untreated group, of which culture medium was collected for MSC, were seeded on 3 culture dishes with a diameter of 10 cm.
# (§3) (2) A 12 ml aliquot of the supernatant was transferred to an Amicon Ultra-15 Centrifugal Filter Unit and was centrifuged at 5,000 g for 60 to 90 min.
# (§4) (3) The absorbance of the enriched culture supernatant (secretome) was measured using a NanoDrop at 280 nm and the protein level was assayed. The blank culture medium and 2× modified RIPA buffer were added to adjust the protein concentration to 1.0 μg/μl. Then, a sonicator (BioRuptur manufactured by COSMO BIO, Tokyo, Japan) was used to perform the total 1 min and 4 cycles of sonication, each cycle including sonication at 200 W for 15 sec and a pause for 30 sec in ice bath. Then, 5×SDS sample buffer was added to adjust the protein concentration to 0.8 μg/μl. Finally, a block incubator (IKA, Staufen, Germany) was used for heat denaturing at 98° C. for 5 min. […]
# (§5) After completion of the primary antibody reaction, the membranes were washed in a suitable volume of TBS-T for 10 min 3 times. […] After that, 1 ml of ECL Prime liquid (GE Healthcare Life Sciences) was applied to each membrane of which chemiluminescence was detected with a LAS-4000 (Fujifilm Corporation, Tokyo, Japan).
# MMP-1 = assay: Western blotting of culture supernatant of UE7T-13 cells, MMP-1; format: cell-based; conditions: 15 μM IC-2, UE7T-13 cells, culture supernatant Day 9, vs 0.1% DMSO
# Procedure: as §1, §2, §3, §4, §5
# MMP-2 = assay: Western blotting of culture supernatant of UE7T-13 cells, MMP-2; format: cell-based; conditions: 15 μM IC-2, UE7T-13 cells, culture supernatant Day 9, vs 0.1% DMSO
# Procedure: as §1, §2, §3, §4, §5
# thioredoxin (TRX) = conditions: 15 μM IC-2, UE7T-13 cells, culture supernatant Day 9
# Procedure: Expression and production of MMP family members and TRX in cultured cells or the secreted products of those cells were determined by Western blotting and ELISA.
# Cells: bone marrow-derived mesenchymal stem cell line, UE7T-13 cells.
# UE7T-13 cells were seeded on each culture dish with a diameter of 10 cm such that the cell count in each dish was 9.0×10^3 cells/cm^2. The number of the culture dishes prepared was 6.
# Cells in the remaining 3 culture dishes were treated with DMSO as control. Specifically, DMSO was added by completely exchanging the culture medium with DMEM/10% FBS containing DMSO at the final concentration of 0.1%.
# For the DMSO treatment control, the culture medium was completely exchanged with DMEM/0.05% FBS containing DMSO at the final concentration of 0.1%. For the MSC group, the culture medium was completely exchanged with DMEM/0.05% FBS.
# (1) A 5 ml aliquot of culture medium was collected from the culture dishes and these aliquots were combined in one tube for each group. […]
# The aliquots of culture supernatants collected at Day 9 for ELISA assay were used to determine the production of thioredoxin by ELISA. […] The absorbance at 450 nm was measured using a microplate reader (Tecan Group Ltd). The content of thioredoxin in the culture supernatants was calculated from the absorbance using the calibration curve.
# MMP-14 = assay: Western blotting of culture supernatant of UE7T-13 cells, MMP-14; format: cell-based; conditions: 15 μM IC-2, UE7T-13 cells, culture supernatant Day 9, vs 0.1% DMSO
# Procedure: as §1, §2, §3, §4, §5
compound,measurement,setting,value
"O=C1[C@H](c2ccccc2)N2C(=O)CCN(C(=O)NCc3ccccc3)[C@H]2CN1Cc1cccc2ccccc12 [IC-2, (6S, 9aS)-6-phenyl-8-naphthalen-1-ylmethyl-4,7-dioxo-hexahydro-pyrazino[1,2-a] pyrimidine-1-carbocylic acid benzylamide]",MMP-13 (active form) increase as compared to DMSO control group (chemiluminescence band intensity),MMP-13 (active form),about 5.1 fold
same,MMP-1 increase as compared to DMSO control group (chemiluminescence band intensity),MMP-1,about 4.1 fold
same,MMP-2 increase as compared to DMSO control group (chemiluminescence band intensity),MMP-2,about 1.5 fold
same,"production of thioredoxin, increase (ELISA)",thioredoxin (TRX),1.5 fold
same,MMP-14 increase as compared to DMSO control group (chemiluminescence band intensity),MMP-14,about 2.1 fold
